One data set has as its system LoVo cells. The experiment in a line: LoVo cell proliferation assay (intracellular ATP content, CellTiter-Glo). Type of data set: cell-based. The settings on record: LoVo human colon cancer cells, 3 days incubation; for IC50: 72 h, read-out: IC50 for LoVo cell proliferation inhibition. An excerpt:
The following method evaluates the inhibitory effect of the compounds disclosed herein on the proliferation of LoVo cells via IC50 by measuring the intracellular ATP content. The experimental methodology is briefly described as follows:
• 1. LoVo, human colon cancer cells (Cobioer, Nanjing, CBP60032) • 2. Fetal bovine serum (FBS) (Gibco, 10091-148) • 3. F-12K Medium (Gibco, 21127030) • 4. CellTite-Glo reagent (Promega, G7573) • 5. 96-well cell culture plate (Corning, 3903) • 6. Pancreatin (Invitrogen, 25200-072) • 7. Microplate reader (BMG, PHERAstar) • 8. Cell counter (Countstar, Shanghai, IC1000)
LoVo cells were cultured in an F-12K culture medium containing 10% of FBS, and passaged twice or thrice a week in a passage ratio of 1:3 or 1:5. During passage, cells were digested by pancreatin, transferred to a centrifuge tube, and centrifuged for 3 min at 1200 rpm. The supernatant was discarded, and fresh culture medium was added to resuspend the cells. To a 96-well cell culture plate, 90 μL of the cell suspension was added at a density of 3.88×10^4 cells/mL. To peripheral wells of the 96-well plate, only 100 μL of complete medium was added. The plate was incubated in an incubator for 24 h (37° C., 5% CO2).
The test samples were diluted to 2 mM in DMSO and serially 3-fold diluted to the 10th concentration. Blank and control wells were set. 5 μL of the serially diluted test compound solutions was added to 95 μL of fresh medium. 10 μL of the medium containing the compound above was added to the plate. The plate was incubated in an incubator for 3 days (37° C., 5% CO2). 50 μL of CellTiter-Glo reagent was added into each well of the 96-well cell culture plate. The plate was let stand for 5-10 min in the dark at room temperature. The chemiluminescence signals were read by a PHERAstar system, and the data were processed by GraphPad software.
In general terms: Cellular ATP, detected with luciferase, serves as a proxy for viable cell number.

A further data set addresses T1, ATR enzyme (Homo sapiens, UniProt Q13535).
T1 construct: purchased Eurofins Pharma Discovery Services 14-953-M
The data set is described as follows: Inhibitory effect on ATR enzyme (phospho-p53 HTRF). Type of data set: biochemical. The settings on record: for IC50: 1 nM ATR enzyme, 50 nM P53 protein, 7.435 μM ATP, 2 h room temperature, read-out: IC50 for ATR enzyme inhibition; for Maximum inhibition (%) of ATR enzyme: compound serially 3-fold diluted from 1 μM. An excerpt:
The following method was used to determine the inhibitory effect of the compounds disclosed herein on ATR enzyme. The experimental methodology is briefly described as follows:
• 1. ATR enzyme (Eurofins Pharma Discovery Services, 14-953-M) • 2. GST-tag P53 protein (Eurofins Pharma Discovery Services, 14-952-M) • 3. 384-well plate (Thermo Scientific, 267462) • 4. U-shaped bottom 96-well plate (Corning, 3795) • 5. MAb Anti-phospho p53-Eu cryptate (Cisbio, 61P08KAE) • 6. MAb Anti GST-d2 (Cisbio, 61GSTDLF) • 7. ATP solution (Promega, V916B) • 8. EDTA (Thermo Scientific, AM9260G) • 9. HEPES (Gibco, 15630-080) • 10. Microplate reader (BMG, PHERAsta)
1 nM ATR enzyme, 50 nM P53 protein, 7.435 μM ATP and small molecule compounds of different concentrations (serially 3-fold diluted from 1 μM to the 11th concentration) were mixed and incubated at room temperature for 2 h. A terminating buffer (12.5 mM HEPES, 250 mM EDTA) was added. The mixture was well mixed before 0.42 ng/well of mAb anti-phospho p53-Eu cryptate and 25 ng/well of mAb anti GST-d2 were added. The mixture was incubated overnight at room temperature, and the fluorescence signals at 620 nm and 665 nm were detected using a PHERAstar system. Data were processed using GraphPad software.
A general note: In TR-FRET formats the signal depends on donor and acceptor labels being close together.

Data set [1] in a line: Pharmacokinetic study in rats after intragastric administration. As to conditions: both sexes, Sprague-Dawley (SD), rat, plasma, po, 2 mg/kg; for Vd/F: read-out: Apparent volume of distribution Vz/F; for AUC: read-out: Area under curve AUC; for CL/F: read-out: Clearance CL/F; for half-life: read-out: Half life T1/2 (converted); for Cmax: read-out: Plasma concentration Cmax; for MRT: read-out: Retention time MRT. Type of data set: in vivo. How it is done:
The plasma concentration of the compounds of Examples 1, 2 and 3 in rats after intragastric administration were measured by LC/MS/MS. The pharmacokinetic performance in rats of the compounds disclosed herein was studied and their pharmacokinetic profile was evaluated.
The compounds of Examples 1, 2 and 3.
12 healthy adult SD rats (half male and half female; purchased from Vital River) were evenly divided into 3 groups of 4.
A certain amount of the compound was added to a mixed solvent containing 5% of DMSO, 5% of Tween 80 and 90% of normal saline to obtain a colorless and clear solution.
SD rats were intragastrically administered with the compounds after fasting overnight, at a dose of 2 mg/kg and a volume of 10.0 mL/kg.
Rats were intragastrically administered with the compounds of Examples 1, 2 and 3. 0.2 mL of blood was collected from the orbit pre-dose and at 0.25, 0.5, 1.0, 2.0, 4.0, 6.0, 8.0, 11.0 and 24.0 h post-does. The blood samples were transferred to EDTA-K2kk anticoagulation vacutainers, centrifuged at 4° C. and 11000 rpm for 5 min to separate plasma. The plasma samples were stored at −20° C. The mice were fed 2 h after administration.
The plasma concentration of the compounds in rats after intragastric administration was determined: 25 μL of rat plasma at each time point post-dose was mixed with 50 μL of internal standard and 175 μL of acetonitrile; the mixture was vortexed 5 min, and centrifuged for 10 min at 4000 rpm. 1 μL of supernatant was taken for LC/MS/MS analysis.

Each structure is given as a SMILES string.

T1 sequence (Q13535 whole entry): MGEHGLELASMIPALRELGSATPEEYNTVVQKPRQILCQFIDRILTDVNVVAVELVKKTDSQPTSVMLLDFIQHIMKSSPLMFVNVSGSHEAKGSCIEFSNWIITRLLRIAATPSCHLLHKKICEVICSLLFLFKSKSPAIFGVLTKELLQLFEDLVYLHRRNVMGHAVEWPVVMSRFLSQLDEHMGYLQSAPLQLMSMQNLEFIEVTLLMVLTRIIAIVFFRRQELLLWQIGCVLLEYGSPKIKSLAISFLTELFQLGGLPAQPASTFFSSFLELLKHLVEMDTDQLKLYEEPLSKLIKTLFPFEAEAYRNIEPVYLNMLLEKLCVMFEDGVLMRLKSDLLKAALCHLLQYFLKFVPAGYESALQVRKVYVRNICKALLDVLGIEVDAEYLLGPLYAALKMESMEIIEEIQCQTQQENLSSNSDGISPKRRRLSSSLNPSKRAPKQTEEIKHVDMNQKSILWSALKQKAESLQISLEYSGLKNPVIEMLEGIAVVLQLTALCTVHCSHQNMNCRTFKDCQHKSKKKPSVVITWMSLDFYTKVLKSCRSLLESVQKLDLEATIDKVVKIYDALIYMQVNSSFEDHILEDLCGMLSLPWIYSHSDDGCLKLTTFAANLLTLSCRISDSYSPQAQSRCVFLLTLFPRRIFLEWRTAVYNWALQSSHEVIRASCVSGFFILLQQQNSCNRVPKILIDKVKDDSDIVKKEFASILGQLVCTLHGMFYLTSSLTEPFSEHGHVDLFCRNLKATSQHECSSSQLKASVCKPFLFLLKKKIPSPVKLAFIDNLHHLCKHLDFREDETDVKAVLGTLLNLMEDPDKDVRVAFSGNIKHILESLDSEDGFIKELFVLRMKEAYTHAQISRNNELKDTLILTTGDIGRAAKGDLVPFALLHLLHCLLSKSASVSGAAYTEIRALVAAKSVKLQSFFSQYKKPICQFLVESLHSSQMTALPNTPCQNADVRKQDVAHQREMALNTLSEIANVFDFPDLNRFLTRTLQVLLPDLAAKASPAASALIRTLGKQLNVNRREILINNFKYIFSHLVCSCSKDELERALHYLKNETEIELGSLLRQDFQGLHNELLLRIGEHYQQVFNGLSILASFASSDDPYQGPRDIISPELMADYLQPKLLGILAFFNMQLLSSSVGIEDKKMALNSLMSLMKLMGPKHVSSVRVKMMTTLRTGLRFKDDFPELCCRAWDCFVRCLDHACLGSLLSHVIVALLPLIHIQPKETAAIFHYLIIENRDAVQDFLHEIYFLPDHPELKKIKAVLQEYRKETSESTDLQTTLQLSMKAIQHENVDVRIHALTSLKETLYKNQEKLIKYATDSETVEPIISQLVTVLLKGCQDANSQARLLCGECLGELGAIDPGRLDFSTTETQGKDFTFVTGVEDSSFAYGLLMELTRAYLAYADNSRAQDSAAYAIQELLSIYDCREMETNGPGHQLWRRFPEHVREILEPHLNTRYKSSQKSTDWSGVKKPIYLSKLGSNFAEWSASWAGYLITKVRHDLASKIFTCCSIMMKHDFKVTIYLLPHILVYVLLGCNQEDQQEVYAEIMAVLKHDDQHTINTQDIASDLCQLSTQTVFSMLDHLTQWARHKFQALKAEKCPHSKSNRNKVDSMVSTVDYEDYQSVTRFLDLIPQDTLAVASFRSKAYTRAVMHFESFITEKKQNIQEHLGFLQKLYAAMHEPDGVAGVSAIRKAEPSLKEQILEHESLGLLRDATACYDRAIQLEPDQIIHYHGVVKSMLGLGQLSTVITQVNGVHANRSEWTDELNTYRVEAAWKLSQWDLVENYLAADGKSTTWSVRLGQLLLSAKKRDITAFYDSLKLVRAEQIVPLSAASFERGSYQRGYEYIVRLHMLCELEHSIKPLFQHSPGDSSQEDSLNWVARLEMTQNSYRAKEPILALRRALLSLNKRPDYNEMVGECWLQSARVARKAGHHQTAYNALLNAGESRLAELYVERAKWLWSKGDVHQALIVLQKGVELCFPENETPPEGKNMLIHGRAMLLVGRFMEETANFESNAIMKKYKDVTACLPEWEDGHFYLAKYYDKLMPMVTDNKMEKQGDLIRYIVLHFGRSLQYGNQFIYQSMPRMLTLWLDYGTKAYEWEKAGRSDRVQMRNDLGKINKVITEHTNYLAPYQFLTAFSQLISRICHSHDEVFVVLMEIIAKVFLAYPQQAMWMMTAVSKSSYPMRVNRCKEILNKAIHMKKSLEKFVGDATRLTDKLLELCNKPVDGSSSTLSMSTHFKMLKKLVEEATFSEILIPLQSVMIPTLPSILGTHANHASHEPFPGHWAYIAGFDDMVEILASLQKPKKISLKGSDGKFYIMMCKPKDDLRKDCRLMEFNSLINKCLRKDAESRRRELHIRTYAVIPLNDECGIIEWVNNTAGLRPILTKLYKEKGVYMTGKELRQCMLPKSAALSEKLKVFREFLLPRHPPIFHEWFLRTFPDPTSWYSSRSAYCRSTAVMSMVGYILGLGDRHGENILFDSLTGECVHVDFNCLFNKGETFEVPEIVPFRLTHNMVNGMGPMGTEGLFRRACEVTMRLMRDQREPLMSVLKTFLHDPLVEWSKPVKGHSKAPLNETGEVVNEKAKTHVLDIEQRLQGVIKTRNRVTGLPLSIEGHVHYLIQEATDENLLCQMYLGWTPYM
T1 sequence (Q8WXE1 whole entry partner): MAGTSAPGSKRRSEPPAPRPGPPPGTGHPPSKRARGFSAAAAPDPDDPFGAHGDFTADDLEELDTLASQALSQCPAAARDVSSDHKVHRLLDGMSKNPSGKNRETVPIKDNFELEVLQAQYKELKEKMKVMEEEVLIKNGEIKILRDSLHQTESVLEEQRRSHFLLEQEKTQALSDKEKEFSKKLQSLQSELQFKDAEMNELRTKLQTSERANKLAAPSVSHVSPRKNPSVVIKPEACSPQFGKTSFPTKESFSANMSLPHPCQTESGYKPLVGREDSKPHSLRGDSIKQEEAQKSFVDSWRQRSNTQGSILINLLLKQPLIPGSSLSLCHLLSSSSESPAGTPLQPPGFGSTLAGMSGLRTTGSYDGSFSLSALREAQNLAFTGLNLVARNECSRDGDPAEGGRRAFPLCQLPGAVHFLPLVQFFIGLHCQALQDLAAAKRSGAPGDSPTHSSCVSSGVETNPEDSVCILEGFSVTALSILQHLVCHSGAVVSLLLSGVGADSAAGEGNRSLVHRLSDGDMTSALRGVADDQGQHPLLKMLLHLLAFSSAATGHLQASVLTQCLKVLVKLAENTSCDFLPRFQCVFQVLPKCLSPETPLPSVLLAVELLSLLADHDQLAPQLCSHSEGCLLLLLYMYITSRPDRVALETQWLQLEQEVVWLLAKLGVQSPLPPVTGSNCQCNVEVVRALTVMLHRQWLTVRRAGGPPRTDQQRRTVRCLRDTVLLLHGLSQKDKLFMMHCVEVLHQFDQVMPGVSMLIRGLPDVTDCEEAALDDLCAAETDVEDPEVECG

Consider `C[C@@H]1COCCN1c1cc(C(C)(C)O)c2c(n1)c(-c1cc[nH]n1)nn2C` [Comparative Example 1, (R)-2-(1-methyl-5-(3-methylmorpholinyl)-3-(1H-pyrazol-3-yl)-1H-pyrazolo[4,3-b]pyridin-7-yl)propan-2-ol, reference compound], for which, in the data set on LoVo cells, the IC50 came to 316 nM and the “Maximum inhibition (%) of LoVo cell proliferation” value was 92%. Also, at ATR enzyme, the IC50 was 73 nM and the “Maximum inhibition (%) of ATR enzyme” value is 97%.

For the molecule `C[C@@H]1COCCN1c1cc(C(C)(C)C#N)c2c(n1)c(-c1cc[nH]n1)nn2C` [Example 1, (R)-2-methyl-2-(1-methyl-5-(3-methylmorpholinyl)-3-(1H-pyrazol-3-yl)-1H-pyrazolo[4,3-b]pyridin-7-yl)propanenitrile], in the data set with LoVo cells, the IC50 stood at 43 nM.

Regarding `C[C@@H]1COCCN1c1cc(C2(C#N)CC2)c2c(n1)c(-c1cc[nH]n1)nn2C` [Example 2, (R)-1-(1-methyl-5-(3-methylmorpholinyl)-3-(1H-pyrazol-3-yl)-1H-pyrazolo[4,3-b]pyridin-7-yl)cyclopropanenitrile], in the data set with LoVo cells, the IC50 was determined as 75 nM and the “Maximum inhibition (%) of LoVo cell proliferation” value was found to be 90%. On ATR enzyme, the IC50 was determined as 9 nM and the “Maximum inhibition (%) of ATR enzyme” value is reported as 100%. For the same molecule, in data set [1], the Vd/F came out at 7.8 ± 6.13 L/kg, the AUC amounted to 1590 ± 1390 ng·h/mL, the CL/F is 51.7 ± 49.5 mL/min/kg and the half-life was 2.57 ± 1.39 h. Further, in data set [1], the Cmax was 309 ± 219 ng/mL and the MRT turned out to be 3.99 ± 2.26 h.

Consider `C[C@@H]1COCCN1c1cc(-c2ccnn2C)c2c(n1)c(-c1cc[nH]n1)nn2C` [Example 3, (R)-3-methyl-4-(1-methyl-7-(1-methyl-1H-pyrazol-5-yl)-3-(1H-pyrazol-3-yl)-1H-pyrazolo[4,3-b]pyridin-5-yl) morpholine], for which, in the data set with LoVo cells, the IC50 stood at 124 nM and the “Maximum inhibition (%) of LoVo cell proliferation” value is listed as 87%. In addition, on ATR enzyme, the IC50 was 15 nM and the “Maximum inhibition (%) of ATR enzyme” value is 100%. In data set [1], the Vd/F was 2.44 ± 0.448 L/kg, the AUC came out at 2710 ± 807 ng·h/mL, the CL/F came out at 13.1 ± 3.7 mL/min/kg and the half-life is 2.23 ± 0.53 h. In addition, in data set [1], the Cmax amounted to 674 ± 86.7 ng/mL and the MRT worked out at 3.26 ± 0.67 h.

For the molecule `CCn1nc(-c2cc[nH]n2)c2nc(N3CCOC[C@H]3C)cc(C(C)(C)C#N)c21` [Example 4, (R)-2-(1-ethyl-5-(3-methylmorpholinyl)-3-(1H-pyrazol-3-yl)-1H-pyrazolo[4,3-b]pyridin-7-yl)-2-methylpropanenitrile], in the data set with LoVo cells, the IC50 amounted to 64 nM and the “Maximum inhibition (%) of LoVo cell proliferation” value was 89%. Moreover, on ATR enzyme, the IC50 worked out at 6 nM and the “Maximum inhibition (%) of ATR enzyme” value is 100%.

As for `CCn1nc(-c2cc[nH]n2)c2nc(N3CCOC[C@H]3C)cc(C3(C#N)CC3)c21` [Example 5, (R)-1-(1-ethyl-5-(3-methylmorpholinyl)-3-(1H-pyrazol-3-yl)-1H-pyrazolo[4,3-b]pyridin-7-yl) cyclopropanenitrile], in the data set on LoVo cells, the IC50 is 100 nM and the “Maximum inhibition (%) of LoVo cell proliferation” value is listed as 93%. Further, on ATR enzyme, the IC50 worked out at 8 nM and the “Maximum inhibition (%) of ATR enzyme” value was 100%.

As to `C[C@@H]1COCCN1c1cc(C(C)(C)C#N)c2[nH]nc(-c3cc[nH]n3)c2n1` [Example 6, (R)-2-methyl-2-(5-(3-methylmorpholinyl)-3-(1H-pyrazol-3-yl)-1H-pyrazolo[4,3-b]pyridin-7-yl)propanenitrile], in the data set with LoVo cells, the IC50 was found to be 55 nM and the “Maximum inhibition (%) of LoVo cell proliferation” value turned out to be 95%. On ATR enzyme, the IC50 was determined as 3 nM and the “Maximum inhibition (%) of ATR enzyme” value is 100%.

As usually defined, the AUC is the area under the concentration-time curve, a measure of exposure. What is called MRT is the average time that molecules of a dose stay in the body.

(Values after patent US12559488B2, “Substituted morpholines as ATR kinase inhibitors” (JIANGSU HENGRUI MEDICINE CO., LTD., priority 2019, dated 2026).)
